Patent publication US20130096105A1, “ArylSulfonamide Based Matrix Metalloprotease Inhibitors” (NOVARTIS AG, priority 2008, published 2013)

Tests used:
Collagenase-3 (MMP-13) = Collagenase-3 (MMP-13) (Homo sapiens, UniProt P45452); assay: Collagenase-3 (MMP-13) inhibitory activity, fluorogenic peptide substrate cleavage; format: biochemical; settings: read-out: MMP13 IC50
Outline: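 Recombinant pro-MMP-13 activated with 1 mM APMA; inhibitor preincubated 60 min, then 5 μM MCA-Lys-Pro-Leu-Gly-Leu-Dpa-Ala-Arg-NH2 added in Tris-Cl pH 7.5 buffer with Zn2+, Ca2+, Brij-35, 1.0% DMSO, 20-25 °C. Fluorescence (ex 325/em 405 nm) read after 60 min; IC50 versus uninhibited control.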

Gelatinase (MMP-2) = biological target: T1, Gelatinase (MMP-2) (Homo sapiens, UniProt P08253); assay: Gelatinase (MMP-2) inhibitory activity, fluorogenic peptide substrate cleavage; format: biochemical; settings: read-out: MMP02 IC50
T1 sequence (P08253 110-660): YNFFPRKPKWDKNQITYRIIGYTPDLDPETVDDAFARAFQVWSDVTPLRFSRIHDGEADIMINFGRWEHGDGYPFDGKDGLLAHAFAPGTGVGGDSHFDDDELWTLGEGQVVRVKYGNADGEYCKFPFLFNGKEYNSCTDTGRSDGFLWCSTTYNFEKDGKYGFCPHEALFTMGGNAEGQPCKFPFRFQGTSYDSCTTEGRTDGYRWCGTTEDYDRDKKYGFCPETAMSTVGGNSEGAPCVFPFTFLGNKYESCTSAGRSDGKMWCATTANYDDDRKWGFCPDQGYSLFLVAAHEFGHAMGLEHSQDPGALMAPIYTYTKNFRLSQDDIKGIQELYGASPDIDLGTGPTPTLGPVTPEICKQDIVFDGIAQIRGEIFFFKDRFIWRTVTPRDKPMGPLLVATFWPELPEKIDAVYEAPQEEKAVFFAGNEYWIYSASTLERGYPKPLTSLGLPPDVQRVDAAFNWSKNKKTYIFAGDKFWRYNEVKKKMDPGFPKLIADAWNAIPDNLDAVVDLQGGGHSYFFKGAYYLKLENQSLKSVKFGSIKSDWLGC
Outline: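 Fluorogenic assay with MCA-Lys-Pro-Leu-Gly-Leu-Dpa-Ala-Arg-NH2 at 5 μM in Tris-Cl pH 7.5 buffer with ZnCl2, CaCl2, Brij-35 and 1.0% DMSO, 20-25 °C. Enzyme preincubated with inhibitor 60 min; fluorescence (ex 325/em 405 nm) read 60 min after substrate addition. IC50 relative to uninhibited control.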

| SMILES | IC50 (Collagenase-3 (MMP-13)) [µM] | IC50 (Gelatinase (MMP-2)) [µM] | melting point [°C] |
| --- | --- | --- | --- |
| COc1ccc(C(=O)c2cccc(S(N)(=O)=O)c2)cc1 [Example 1, 3-(4-Methoxy-benzoyl)-benzenesulfonamide] | 2.49 | 1.92 | 119 to 122 |
| COc1ccc(C(=O)c2ccc(Cl)c(S(N)(=O)=O)c2)cc1 [Example 3, 2-Chloro-5-(4-methoxy-benzoyl)-benzenesulfonamide] | 2.02 | 5.18 | 156 to 158 |
| C#Cc1ccc(C(=O)c2ccc(Cl)c(S(N)(=O)=O)c2)cc1 [Example 31, 2-Chloro-5-(4-ethynyl-benzoyl)-benzenesulfonamide] | 12.4 | 10.4 | 147 to 149 |
| CC(C)CCn1ccc2cc(C(=O)c3ccc(Cl)c(S(N)(=O)=O)c3)ccc21 [Example 117, 2-Chloro-5-[1-(3-methyl-butyl)-1H-indole-5-carbonyl]benzenesulfonamide] | 23 | 26.7 |  |
| NS(=O)(=O)c1cc(C(=O)c2ccc3c(-c4ccccc4)c[nH]c3c2)ccc1Cl [Example 118, 2-Chloro-5-(3-phenyl-1H-indole-6-carbonyl)-benzenesulfonamide] | 1.03 | 2 |  |
| COc1ccc(-c2c[nH]c3cc(C(=O)c4ccc(Cl)c(S(N)(=O)=O)c4)ccc23)cc1 [Example 119, 2-Chloro-5-[3-(4-methoxy-phenyl)-1H-indole-6-carbonyl]-benzenesulfonamide] | 6.04 | 24 |  |
| NS(=O)(=O)c1cc(C(=O)c2ccc3c(-c4ccc(F)cc4)c[nH]c3c2)ccc1Cl [Example 120, 2-Chloro-5-[3-(4-fluoro-phenyl)-1H-indole-6-carbonyl]-benzenesulfonamide] | 0.95 | 1.9 |  |
| CC(=O)c1cccc(-c2c[nH]c3cc(C(=O)c4ccc(Cl)c(S(N)(=O)=O)c4)ccc23)c1 [Example 121, 5-[3-(3-Acetyl-phenyl)-1H-indole-6-carbonyl]-2-chloro-benzenesulfonamide] | 0.59 | 3.9 |  |
| CC(=O)c1ccc(-c2c[nH]c3cc(C(=O)c4ccc(Cl)c(S(N)(=O)=O)c4)ccc23)cc1 [Example 122, 5-[3-(4-Acetyl-phenyl)-1H-indole-6-carbonyl]-2-chloro-benzenesulfonamide] | 1.45 | 12.5 |  |
| CS(=O)(=O)c1cccc(-c2c[nH]c3cc(C(=O)c4ccc(Cl)c(S(N)(=O)=O)c4)ccc23)c1 [Example 123, 2-Chloro-5-[3-(3-methanesulfonyl-phenyl)-1H-indole-6-carbonyl]-benzenesulfonamide] | 0.39 | 5.02 |  |
| CS(=O)(=O)c1ccc(-c2c[nH]c3cc(C(=O)c4ccc(Cl)c(S(N)(=O)=O)c4)ccc23)cc1 [Example 124, 2-Chloro-5-[3-(4-methanesulfonyl-phenyl)-1H-indole-6-carbonyl]-benzenesulfonamide] | 0.54 | 19.7 |  |
| CCS(=O)(=O)c1ccc(-c2c[nH]c3cc(C(=O)c4ccc(Cl)c(S(N)(=O)=O)c4)ccc23)cc1 [Example 125, 2-Chloro-5-[3-(4-ethanesulfonyl-phenyl)-1H-indole-6-carbonyl]-benzenesulfonamide] | 1.01 | > 30 |  |
| NS(=O)(=O)c1cc(C(=O)c2ccc3c(-c4ccc(-c5ccccc5)cc4)c[nH]c3c2)ccc1Cl [Example 126, 5-(3-Biphenyl-4-yl-1H-indole-6-carbonyl)-2-chloro-benzenesulfonamide] | 10 | 22.8 |  |
| NS(=O)(=O)c1cc(C(=O)c2ccc3c(-c4ccc5[nH]ccc5c4)c[nH]c3c2)ccc1Cl [Example 129, 5-(1H,1′H-[3,5′]Biindolyl-6-carbonyl)-2-chloro-benzenesulfonamide] | 1.65 | 2.95 |  |
| NS(=O)(=O)c1cc(C(=O)c2ccc3c(-c4cccnc4)c[nH]c3c2)ccc1Cl [Example 130, 2-Chloro-5-(3-pyridin-3-yl-1H-indole-6-carbonyl)benzenesulfonamide] | 0.24 | 2.62 |  |
| NS(=O)(=O)c1cc(C(=O)c2ccc3c(-c4cncnc4)c[nH]c3c2)ccc1Cl [Example 131, 2-Chloro-5-(3-pyrimidin-5-yl-1H-indole-6-carbonyl)-benzenesulfonamide] | 0.195 | 4 |  |

| SMILES | IC50 (Collagenase-3 (MMP-13)) [µM] | IC50 (Gelatinase (MMP-2)) [µM] | melting point [°C] |
| --- | --- | --- | --- |
| NS(=O)(=O)c1cc(C(=O)c2ccc3c(-c4ccc(C(=O)N5CCOCC5)cc4)c[nH]c3c2)ccc1Cl [Example 132, 2-Chloro-5-{3-[4-(morpholine-4-carbonyl)-phenyl]-1H-indole-6-carbonyl}-benzenesulfonamide] | 0.73 | 16 |  |
| Cc1noc(C)c1-c1c[nH]c2cc(C(=O)c3ccc(Cl)c(S(N)(=O)=O)c3)ccc12 [Example 133, 2-Chloro-5-[3-(3,5-dimethyl-isoxazol-4-yl)-1H-indole-6-carbonyl]-benzenesulfonamide] | 0.3 | 23 |  |
| COc1cc(-c2c[nH]c3cc(C(=O)c4ccc(Cl)c(S(N)(=O)=O)c4)ccc23)c(Cl)cn1 [Example 134, 2-Chloro-5-[3-(5-chloro-2-methoxy-pyridin-4-yl)-1H-indole-6-carbonyl]-benzenesulfonamide] | 0.1 | 23 |  |
| NS(=O)(=O)c1cc(C(=O)c2ccc3c(-c4ccncc4)c[nH]c3c2)ccc1Cl [Example 135, 2-Chloro-5-(3-pyridin-4-yl-1H-indole-6-carbonyl)-benzenesulfonamide] | 0.09 | 1.05 |  |
| NS(=O)(=O)c1cc(C(=O)c2ccc3c(-c4ccnc(Cl)c4)c[nH]c3c2)ccc1Cl [Example 136, 2-Chloro-5-[3-(2-chloro-pyridin-4-yl)-1H-indole-6-carbony]-benzenesulfonamide] | 0.25 | 18 |  |
| Cc1cc(-c2c[nH]c3cc(C(=O)c4ccc(Cl)c(S(N)(=O)=O)c4)ccc23)ccn1 [Example 137, 2-Chloro-5-[3-(2-methyl-pyridin-4-yl)-1H-indole-6-carbonyl]-benzenesulfonamide] | 0.041 | 3.45 |  |
| CCc1cc(-c2c[nH]c3cc(C(=O)c4ccc(Cl)c(S(N)(=O)=O)c4)ccc23)ccn1 [Example 138, 2-Chloro-5-[3-(2-ethyl-pyridin-4-yl)-1H-indole-6-carbonyl]-benzenesulfonamide] | 0.06 | 3.55 |  |
| NS(=O)(=O)c1cc(C(=O)c2ccc3c(-c4ccnc(C5CC5)c4)c[nH]c3c2)ccc1Cl [Example 139, 2-Chloro-5-[3-(2-cyclopropyl-pyridin-4-yl)-1H-indole-6-carbonyl]-benzenesulfonamide] | 0.068 | 4.15 |  |
| COCCCc1cc(-c2c[nH]c3cc(C(=O)c4ccc(Cl)c(S(N)(=O)=O)c4)ccc23)ccn1 [Example 140, 2-Chloro-5-{3-[2-(3-methoxy-propyl)-pyridin-4-yl]-1H-indole-6-carbonyl}-benzenesulfonamide] | 0.007 | 0.36 |  |
| NS(=O)(=O)c1cc(C(=O)c2ccc3c(-c4ccnc(CCCN5CCOCC5)c4)c[nH]c3c2)ccc1Cl [Example 141, 2-Chloro-5-{3-[2-(3-morpholin-4-yl-propyl)-pyridin-4-yl]-1H-indole-6-carbonyl}-benzenesulfonamide] | 0.02 | 1.1 |  |
| CN(C)CCOc1cc(-c2c[nH]c3cc(C(=O)c4ccc(Cl)c(S(N)(=O)=O)c4)ccc23)ccn1 [Example 142, 2-Chloro-5-{3-[2-(2-dimethylamino-ethoxy)-pyridin-4-yl]-1H-indole-6-carbonyl}-benzenesulfonamide] | 0.017 | 0.2 |  |
| NS(=O)(=O)c1cc(C(=O)c2ccc3c(-c4ccnc(OCCN5CCOCC5)c4)c[nH]c3c2)ccc1Cl [Example 143, 2-Chloro-5-{3-[2-(2-morpholin-4-yl-ethoxy)-pyridin-4-yl]-1H-indole-6-carbonyl}-benzenesulfonamide] | 0.15 | 2.85 |  |
| NS(=O)(=O)c1cc(C(=O)c2ccc3cc[nH]c3c2)ccc1F [Example 144, 2-Fluoro-5-(1H-indole-6-carbonyl)-benzenesulfonamide] | 0.3 | 0.39 |  |
| Cc1ccc(C(=O)c2ccc3cc[nH]c3c2)cc1S(N)(=O)=O [Example 145, 5-(1H-Indole-6-carbonyl)-2-methyl-benzenesulfonamide] | 0.1 | 0.2 |  |
| NS(=O)(=O)c1cccc(C(=O)c2ccc3cc[nH]c3c2)c1 [Example 146, 3-(1H-Indole-6-carbonyl)-benzenesulfonamide] | 0.2 | 0.24 |  |
| Cc1cc(-c2c[nH]c3cc(C(=O)c4ccc(C)c(S(N)(=O)=O)c4)ccc23)ccn1 [Example 147, 2-Methyl-5-[3-(2-methyl-pyridin-4-yl)-1H-indole-6-carbonyl]-benzenesulfonamide] | 0.02 | 2.4 |  |
